Laboratory results reported in patent publication US5958873A, “Oral formulation for treatment of bacteria-induced diseases of the colon” (University of Cincinnati, priority 1997, dated 1999).
≈ marks a conversion by molar mass, not a printed value.

Legend:
[1] = test system: Bacteroides fragilis; assay: In vitro MIC against clinical isolates of B. fragilis (same agar method); assay type: cell-based; settings: 23 clinical isolates of B. fragilis; calculated geometrically
[2] = test system: C. difficile; assay: In vitro MIC against clinical isolates of C. difficile (Brucella agar with sheep's blood, anaerobic); assay type: cell-based, Clostridium difficile

CCC[C@@H]1C[C@@H](C(=O)N[C@@H]([C@H]2O[C@H](SC)[C@H](O)[C@@H](O)[C@H]2O)[C@H](C)Cl)N(C)C1 [clindamycin]
MIC50 [1]: 55 μml | MIC90 [1]: 13 μml

Cc1ncc([N+](=O)[O-])n1CCO [metronidazole]
MIC range ([2]; 60 clinical isolates of C. difficile): 0.25-4 μml | MIC50 [1]: 1.4 μml | MIC90 [1]: 2 μml

CN[C@H](CC(C)C)C(=O)N[C@H]1C(=O)N[C@@H](CC(N)=O)C(=O)N[C@H]2C(=O)N[C@H]3C(=O)N[C@H](C(=O)N[C@H](C(=O)O)c4cc(O)cc(O)c4-c4cc3ccc4O)[C@H](O)c3ccc(c(Cl)c3)Oc3cc2cc(c3O[C@@H]2O[C@H](CO)[C@@H](O)[C@H](O)[C@H]2O[C@H]2C[C@](C)(N)[C@H](O)[C@H](C)O2)Oc2ccc(cc2Cl)[C@H]1O [vancomycin]
MIC50 [2]: 0.38 µg/mL (≈ 0.262 µM) | MIC90 [2]: 0.8 µg/mL (≈ 0.552 µM) | MIC range ([2]; in µg/mL): 0.13-2
